Laboratory results published in patent publication US11629143B2, “HipK4 inhibitors and uses thereof” (Vibliome Therapeutics, LLC, priority 2020, dated 2023).

Columns and labels:
Experiment in all cases: Kinase panel (mobility shift)
Format in all cases: biochemical
EPH-B2 = molecular target: T1, EPH-B2 (Homo sapiens, UniProt P29323); conditions: at 5 um
T1 sequence (P29323 19-1055): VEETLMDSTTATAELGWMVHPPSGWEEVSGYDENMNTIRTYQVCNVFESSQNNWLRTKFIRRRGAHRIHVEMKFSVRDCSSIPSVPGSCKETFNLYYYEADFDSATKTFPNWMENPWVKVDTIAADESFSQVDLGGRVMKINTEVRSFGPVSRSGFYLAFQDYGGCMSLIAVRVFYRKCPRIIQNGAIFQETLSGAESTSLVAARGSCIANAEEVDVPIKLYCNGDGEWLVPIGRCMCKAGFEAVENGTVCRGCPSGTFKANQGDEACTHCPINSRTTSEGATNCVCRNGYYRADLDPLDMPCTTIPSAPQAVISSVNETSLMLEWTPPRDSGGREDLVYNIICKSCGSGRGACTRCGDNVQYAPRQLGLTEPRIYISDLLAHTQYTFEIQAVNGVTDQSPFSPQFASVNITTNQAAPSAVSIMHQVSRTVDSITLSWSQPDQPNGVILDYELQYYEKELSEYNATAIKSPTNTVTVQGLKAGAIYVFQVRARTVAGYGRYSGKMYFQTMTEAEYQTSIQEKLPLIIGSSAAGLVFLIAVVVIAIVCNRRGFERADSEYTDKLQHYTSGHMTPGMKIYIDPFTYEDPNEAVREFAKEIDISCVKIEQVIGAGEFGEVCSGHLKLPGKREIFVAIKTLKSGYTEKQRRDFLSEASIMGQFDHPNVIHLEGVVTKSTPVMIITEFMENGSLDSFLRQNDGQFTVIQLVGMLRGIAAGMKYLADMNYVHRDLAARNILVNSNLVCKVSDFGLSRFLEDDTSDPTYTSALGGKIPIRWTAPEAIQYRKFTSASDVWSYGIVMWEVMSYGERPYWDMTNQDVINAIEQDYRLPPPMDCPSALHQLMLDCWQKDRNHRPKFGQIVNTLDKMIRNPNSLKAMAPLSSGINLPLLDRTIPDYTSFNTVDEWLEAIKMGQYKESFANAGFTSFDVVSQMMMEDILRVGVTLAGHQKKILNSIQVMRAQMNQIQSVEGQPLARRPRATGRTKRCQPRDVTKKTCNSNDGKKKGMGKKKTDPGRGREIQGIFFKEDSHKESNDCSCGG
Outline: (§1)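 Tested at a single 5 um concentration within a 299-kinase panel, compounds were scored by electrophoretic mobility shift of a fluorescent substrate into product. Categories: A, 95% or greater; B, 90%-94%; C, 80%-89%.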

PDGFR-b = PDGFR-b (Homo sapiens, UniProt P09619)
Outline: as §1

HIPK4 = molecular target: T2, HIPK4 (Homo sapiens, UniProt Q8NE63)
T2 sequence (Q8NE63 1-616): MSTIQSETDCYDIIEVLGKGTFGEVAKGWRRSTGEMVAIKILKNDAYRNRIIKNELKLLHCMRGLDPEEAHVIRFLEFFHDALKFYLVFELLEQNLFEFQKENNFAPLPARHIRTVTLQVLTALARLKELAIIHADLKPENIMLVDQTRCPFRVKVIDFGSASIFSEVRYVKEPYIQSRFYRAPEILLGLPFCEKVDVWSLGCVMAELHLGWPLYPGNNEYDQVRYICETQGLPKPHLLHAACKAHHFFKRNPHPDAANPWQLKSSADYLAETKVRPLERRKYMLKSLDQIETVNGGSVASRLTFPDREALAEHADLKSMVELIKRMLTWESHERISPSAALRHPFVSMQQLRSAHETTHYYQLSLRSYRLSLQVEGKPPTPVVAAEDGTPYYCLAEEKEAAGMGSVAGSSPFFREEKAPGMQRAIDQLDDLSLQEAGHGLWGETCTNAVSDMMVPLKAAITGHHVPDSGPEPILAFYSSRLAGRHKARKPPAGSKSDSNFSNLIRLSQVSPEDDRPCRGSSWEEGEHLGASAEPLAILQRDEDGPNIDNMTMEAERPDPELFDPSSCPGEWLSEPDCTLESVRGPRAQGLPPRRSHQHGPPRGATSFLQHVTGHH
Outline: as §1

MER = molecular target: T3, MER (Homo sapiens, UniProt Q12866)
T3 sequence (Q12866 21-999): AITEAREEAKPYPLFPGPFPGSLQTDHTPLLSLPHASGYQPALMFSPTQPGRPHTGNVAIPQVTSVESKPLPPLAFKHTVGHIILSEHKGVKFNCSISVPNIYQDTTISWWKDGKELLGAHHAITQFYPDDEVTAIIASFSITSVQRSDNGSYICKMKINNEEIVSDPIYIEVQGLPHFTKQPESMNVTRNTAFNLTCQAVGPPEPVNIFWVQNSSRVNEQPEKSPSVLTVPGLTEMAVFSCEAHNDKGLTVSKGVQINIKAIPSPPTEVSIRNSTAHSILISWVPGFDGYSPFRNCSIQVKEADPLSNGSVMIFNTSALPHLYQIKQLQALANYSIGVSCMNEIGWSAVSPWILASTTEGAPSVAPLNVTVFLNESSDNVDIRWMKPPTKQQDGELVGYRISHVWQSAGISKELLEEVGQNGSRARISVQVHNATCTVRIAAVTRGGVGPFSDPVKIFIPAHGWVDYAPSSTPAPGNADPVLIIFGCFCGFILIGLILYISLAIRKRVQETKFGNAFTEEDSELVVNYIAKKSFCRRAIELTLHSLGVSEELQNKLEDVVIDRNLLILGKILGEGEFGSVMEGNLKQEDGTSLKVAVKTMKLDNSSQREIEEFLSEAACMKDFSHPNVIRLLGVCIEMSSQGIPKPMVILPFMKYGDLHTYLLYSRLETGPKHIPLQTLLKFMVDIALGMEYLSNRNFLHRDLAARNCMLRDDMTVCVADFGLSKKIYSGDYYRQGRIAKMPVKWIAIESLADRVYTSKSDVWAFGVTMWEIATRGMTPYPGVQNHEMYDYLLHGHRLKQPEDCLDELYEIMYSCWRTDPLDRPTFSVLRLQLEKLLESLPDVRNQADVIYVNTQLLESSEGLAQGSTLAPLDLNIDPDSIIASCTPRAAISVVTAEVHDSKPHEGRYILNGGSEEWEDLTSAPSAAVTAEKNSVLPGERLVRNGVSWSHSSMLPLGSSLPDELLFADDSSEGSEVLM
Outline: as §1

LOK = LOK (Homo sapiens, UniProt O94804); conditions: at 5 um
Outline: as §1

Chain of LOK (O94804 whole entry, species assumed): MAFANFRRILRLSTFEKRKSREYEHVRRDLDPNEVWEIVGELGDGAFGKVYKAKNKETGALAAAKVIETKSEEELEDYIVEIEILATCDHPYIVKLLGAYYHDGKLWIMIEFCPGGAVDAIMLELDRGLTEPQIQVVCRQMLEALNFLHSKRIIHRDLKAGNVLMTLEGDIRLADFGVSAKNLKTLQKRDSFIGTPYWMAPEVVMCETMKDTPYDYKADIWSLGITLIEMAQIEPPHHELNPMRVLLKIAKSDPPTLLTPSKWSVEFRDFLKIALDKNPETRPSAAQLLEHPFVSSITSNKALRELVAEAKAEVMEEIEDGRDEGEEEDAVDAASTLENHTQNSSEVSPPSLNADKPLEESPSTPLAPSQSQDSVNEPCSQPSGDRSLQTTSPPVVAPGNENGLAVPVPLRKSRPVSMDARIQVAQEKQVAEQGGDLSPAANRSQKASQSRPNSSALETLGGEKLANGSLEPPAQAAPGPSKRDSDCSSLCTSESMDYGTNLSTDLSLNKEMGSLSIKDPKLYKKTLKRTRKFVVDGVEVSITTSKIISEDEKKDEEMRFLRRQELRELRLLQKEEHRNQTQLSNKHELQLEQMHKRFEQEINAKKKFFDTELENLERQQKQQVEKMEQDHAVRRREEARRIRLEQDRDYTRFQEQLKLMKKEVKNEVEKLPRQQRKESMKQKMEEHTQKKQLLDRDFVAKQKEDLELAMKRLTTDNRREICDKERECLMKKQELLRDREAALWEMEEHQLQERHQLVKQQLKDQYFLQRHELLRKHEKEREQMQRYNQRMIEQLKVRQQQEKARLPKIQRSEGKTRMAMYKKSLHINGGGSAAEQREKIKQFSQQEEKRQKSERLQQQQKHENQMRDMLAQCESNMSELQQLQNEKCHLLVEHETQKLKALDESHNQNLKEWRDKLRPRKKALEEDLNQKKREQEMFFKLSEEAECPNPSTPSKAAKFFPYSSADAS
Chain of PDGFR-b (P09619 33-1106, species assumed): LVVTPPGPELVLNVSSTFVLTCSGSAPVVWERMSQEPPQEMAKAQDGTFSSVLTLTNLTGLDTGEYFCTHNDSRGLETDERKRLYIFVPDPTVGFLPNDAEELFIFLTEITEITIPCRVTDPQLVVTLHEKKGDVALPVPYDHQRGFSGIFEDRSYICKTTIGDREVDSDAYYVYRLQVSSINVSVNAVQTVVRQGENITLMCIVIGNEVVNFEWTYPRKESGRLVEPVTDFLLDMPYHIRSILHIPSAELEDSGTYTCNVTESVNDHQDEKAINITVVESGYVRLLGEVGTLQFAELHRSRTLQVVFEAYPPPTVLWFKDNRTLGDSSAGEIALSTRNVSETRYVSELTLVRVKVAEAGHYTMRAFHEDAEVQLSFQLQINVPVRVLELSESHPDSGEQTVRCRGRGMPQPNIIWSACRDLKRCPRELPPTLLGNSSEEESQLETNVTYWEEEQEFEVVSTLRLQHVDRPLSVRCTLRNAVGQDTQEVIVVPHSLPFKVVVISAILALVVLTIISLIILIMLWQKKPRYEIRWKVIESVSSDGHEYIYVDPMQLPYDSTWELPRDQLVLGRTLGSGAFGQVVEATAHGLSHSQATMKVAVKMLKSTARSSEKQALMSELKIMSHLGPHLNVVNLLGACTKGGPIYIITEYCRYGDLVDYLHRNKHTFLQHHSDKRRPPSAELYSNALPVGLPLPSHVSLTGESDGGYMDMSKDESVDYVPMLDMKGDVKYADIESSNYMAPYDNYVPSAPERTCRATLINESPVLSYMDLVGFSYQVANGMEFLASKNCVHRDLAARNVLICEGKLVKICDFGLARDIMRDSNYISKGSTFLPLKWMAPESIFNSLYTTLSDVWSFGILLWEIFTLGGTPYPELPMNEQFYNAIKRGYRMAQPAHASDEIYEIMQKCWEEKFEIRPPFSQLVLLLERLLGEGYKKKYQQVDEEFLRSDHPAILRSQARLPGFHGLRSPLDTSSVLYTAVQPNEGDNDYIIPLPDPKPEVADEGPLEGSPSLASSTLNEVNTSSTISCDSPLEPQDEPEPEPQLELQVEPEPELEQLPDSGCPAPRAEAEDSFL

SMILES | inhibition of kinase activity, EPH-B2 (EPH-B2) | inhibition at 5 µM (PDGFR-b) [%] | inhibition at 5 µM (HIPK4) [%] | inhibition at 5 µM (MER) [%] | inhibition of kinase activity, LOK (LOK)
CNC(=O)c1cc(Oc2ccc(NC(=O)c3nc(SC)oc3-c3ccc(Cl)s3)cc2)ccn1 [Compound 5] | E (category E is less than 50%) | < 50 | 90 to 94 | < 50 | E (category E is less than 50%)
CNC(=O)c1cc(Oc2ccc(NC(=O)c3nc(SC)oc3-c3ccc(OC)cc3)cc2)ccn1 [Compound 7] | E (category E is less than 50%) | < 50 | 90 to 94 | < 50 | C (C=80%-89% at 5 um)
CSc1nc(C(=O)Nc2ccc(Oc3ccnc(-c4cnn(C)c4)c3)c(F)c2)c(-c2ccc(F)cc2)o1 [Compound 11] | B (B=90%-94% at 5 um) | < 50 | ≥ 95 | 90 to 94 | B (B=90%-94% at 5 um)
CNC(=O)c1cc(Oc2ccc(NC(=O)c3nc(S(C)(=O)=O)sc3-c3ccc(F)cc3)cc2F)ccn1 [Compound 13] | E (category E is less than 50%) | < 50 | ≥ 95 | 80 to 89 | E (category E is less than 50%)
CNC(=O)c1cc(Oc2ccc(NC(=O)c3nc(NC)oc3-c3ccc(F)cc3)cc2F)ccn1 [Compound 14] | D (category D for 50-79) | < 50 | ≥ 95 | 50 to 79 | C (C=80%-89% at 5 um)
CNC(=O)c1cc(Oc2ccc(NC(=O)c3nc(NC)oc3-c3ccc(F)s3)cc2F)ccn1 [Compound 17] | E (category E is less than 50%) | < 50 | ≥ 95 | < 50 | D (category D for 50-79)
CNC(=O)c1cc(Oc2c(F)cc(NC(=O)c3nc(NC)sc3-c3ccc(F)cc3)cc2F)ccn1 [Compound 19] | D (category D for 50-79) | < 50 | ≥ 95 | 50 to 79 | D (category D for 50-79)
CNC(=O)c1cc(Oc2ccc(NC(=O)c3nc(NC)sc3-c3ccc(F)cc3C)cc2F)ccn1 [Compound 23] | D (category D for 50-79) | < 50 | 90 to 94 | 50 to 79 | D (category D for 50-79)

Continued, values first:

inhibition of kinase activity, EPH-B2 (EPH-B2) | inhibition at 5 µM (PDGFR-b) [%] | inhibition at 5 µM (HIPK4) [%] | inhibition at 5 µM (MER) [%] | inhibition of kinase activity, LOK (LOK) | SMILES
E (category E is less than 50%) | < 50 | 90 to 94 | < 50 | E (category E is less than 50%) | CSc1nc(C(=O)Nc2ccc(Oc3ccnc(N)c3Cl)c(F)c2)c(-c2ccc(F)cc2)o1 [Compound 1]
E (category E is less than 50%) | < 50 | ≥ 95 | < 50 | D (category D for 50-79) | CSc1nc(C(=O)Nc2ccc(Oc3cc4cnn(C)c4cc3Br)c(F)c2)c(-c2ccc(F)cc2)o1 [Compound 2]
E (category E is less than 50%) | < 50 | ≥ 95 | 90 to 94 | E (category E is less than 50%) | CNC(=O)c1cc(Oc2ccc(NC(=O)c3nc(SC)oc3-c3ccc(F)cc3Cl)cc2)ccn1 [Compound 3]
E (category E is less than 50%) | < 50 | ≥ 95 | 50 to 79 | D (category D for 50-79) | CNC(=O)c1cc(Oc2ccc(NC(=O)c3nc(SC)oc3-c3ccc(F)c(F)c3)cc2)ccn1 [Compound 4]
E (category E is less than 50%) | < 50 | 90 to 94 | 90 to 94 | E (category E is less than 50%) | CNC(=O)c1cc(Oc2ccc(NC(=O)c3nc(SC)oc3-c3ccc(F)cc3F)cc2)ccn1 [Compound 6]
D (category D for 50-79) | < 50 | 90 to 94 | 80 to 89 | D (category D for 50-79) | CNC(=O)c1cc(Oc2ccc(NC(=O)c3nc(SC)oc3-c3ccc(F)cc3F)cc2F)ccn1 [Compound 12]
D (category D for 50-79) | < 50 | ≥ 95 | 50 to 79 | C (C=80%-89% at 5 um) | CNC(=O)c1cc(Oc2ccc(NC(=O)c3nc(OC)oc3-c3ccc(F)cc3)cc2F)ccn1 [Compound 15]
D (category D for 50-79) | < 50 | ≥ 95 | < 50 | D (category D for 50-79) | CNC(=O)c1cc(Oc2ccc(NC(=O)c3nc(SC)oc3-c3ccc(F)s3)cc2F)ccn1 [Compound 16]
D (category D for 50-79) | < 50 | ≥ 95 | < 50 | E (category E is less than 50%) | CNC(=O)c1cc(Oc2ccc(NC(=O)c3nc(NC)sc3-c3ccc(F)cc3F)cc2F)ccn1 [Compound 21]
E (category E is less than 50%) | < 50 | ≥ 95 | < 50 | C (C=80%-89% at 5 um) | CNC(=O)c1cc(Oc2ccc(NC(=O)c3nc(OC)oc3-c3ccc(F)c(F)c3)cc2F)ccn1 [Compound 24]
